Molecules are shown by their SMILES.

One experiment concerns the target T1, 5-lipoxygenase (Homo sapiens, UniProt P09917).
T1 construct: the 5-LO activity in human whole blood; from tissue; host or cells: heparinized human whole blood
T1 sequence (P09917 1-674): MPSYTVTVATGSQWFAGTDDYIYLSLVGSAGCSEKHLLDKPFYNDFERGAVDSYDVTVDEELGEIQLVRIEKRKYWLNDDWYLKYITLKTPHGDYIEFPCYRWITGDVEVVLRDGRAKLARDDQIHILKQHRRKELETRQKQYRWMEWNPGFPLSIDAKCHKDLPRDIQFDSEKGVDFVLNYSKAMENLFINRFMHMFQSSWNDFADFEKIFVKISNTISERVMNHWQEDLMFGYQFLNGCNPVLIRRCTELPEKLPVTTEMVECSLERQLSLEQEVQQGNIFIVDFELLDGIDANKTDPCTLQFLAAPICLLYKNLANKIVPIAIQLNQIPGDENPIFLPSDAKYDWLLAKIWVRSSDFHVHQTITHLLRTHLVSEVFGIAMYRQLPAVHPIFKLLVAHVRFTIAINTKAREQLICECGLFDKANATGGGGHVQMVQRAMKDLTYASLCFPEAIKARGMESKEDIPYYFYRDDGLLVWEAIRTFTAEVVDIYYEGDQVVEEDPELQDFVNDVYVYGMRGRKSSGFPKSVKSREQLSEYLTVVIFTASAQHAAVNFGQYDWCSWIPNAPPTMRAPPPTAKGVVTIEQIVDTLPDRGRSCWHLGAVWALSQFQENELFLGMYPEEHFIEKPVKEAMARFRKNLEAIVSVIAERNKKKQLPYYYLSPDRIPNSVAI
Nature of the experiment: 5-lipoxygenase inhibition in human blood (LTB4 formation). The class given is cell-based. The settings on record: 0.5 h; 10^-5 mole/liter; human whole blood, 37° C.; read-out: In vitro % inhibitory activity on LTB4 formation in human blood stimulated by calcimycin. On the procedure: 4c. In vitro determination of 5-lipoxygenase inhibition in human blood.
The inhibitory activity of the test substances on the 5-LO activity in human whole blood taking place after stimulation by calcimycin is investigated according to the method described by P. Gresele et al. (Biochem. Biophys. Commun. 137 (1986), 334).
For carrying out the test, human blood is collected in sterile 50 ml test tubes which contain 10 units of heparin/ml of blood and incubated for 5-10 minutes at 37° C. Amounts of test substance, dissolved in 10 μl of dimethylformamide, are added to 2 ml samples of this blood such that a final concentration of test substance of 10 μmol/l is achieved in the samples. Only 10 μl of the solvent were added to control samples. The samples were then incubated for 10 minutes at 37° C. In order to stimulate LTB4 synthesis, an amount of calcimycin, dissolved in 200 μl of plasma, was added to the samples such that a calcimycin concentration of 60 μmol/l was achieved, and the samples were incubated for a further 30 minutes at 37° C. The reaction was then terminated by addition of 200 μl of an ethylene glycol tetraacetate solution (corresponding to an ethylene glycol acetate concentration in the sample of 100 mmol/l). The samples are kept in an ice-bath for 10 minutes and then centrifuged (5 minutes at 1000×g). The supernantant liquids, which contain the LTB4 formed during the reaction time, are each separated and, for precipitation of the proteins contained therein, mixed with 3 ml of acetone and kept for 45 minutes at 4° C. Then the samples are centrifuged again (5 minutes at 1500×g), the supernatant liquids are separated, and the content of LTB4 therein is determined in a known manner by means of an enzyme immunoassay (=EIA). From the measured LTB4 values, the inhibitory activity of the test substances in human whole blood was calculated in % inhibition of LTB4 synthesis in comparison to the control samples containing no test substance.
With `Cc1ccnc(N2CCN(CCC3Cn4c(-c5ccc(O)cc5)c(C)c5c(O)ccc(c54)O3)CC2)c1` (stereo not shown) [Example 4, 2,3-Dihydro-7-hydroxy-5-(4-hydroxyphenyl)-6-methyl-2-[2-(4-(4-methylpyridin-2-yl)piperazin-1-yl)ethyl]pyrrolo[1,2,3-de]-1,4-benzoxazine], the inhibition at 10 µM came to 86%.
On to `Cc1ccnc(N2CCN(C(=O)CCC3Cn4c(-c5cc(C)c(O)c(C)c5)c(C)c5c(O)ccc(c54)O3)CC2)c1` (stereo not shown) [Example 67], for which the inhibition at 10 µM was found to be 100%.
For the compound `Cc1ccnc(N2CCN(C(=O)CCC3Cn4c(-c5ccc(O)cc5)c(C)c5c(O)ccc(c54)O3)CC2)c1` (stereo not shown) [Example 69], the inhibition at 10 µM was 95%.
Same read-out and setting: then `Cc1cc(-c2c(C)c3c(O)ccc4c3n2CC(CCC(=O)N2CCN(c3ccccn3)CC2)O4)cc(C)c1O` (stereo not shown) [Example 71], with 100%; and `COc1cc(-c2c(C)c3c(O)ccc4c3n2CC(CCC(=O)N2CCN(c3ccccn3)CC2)O4)cc(C)c1O` (stereo not shown) [Example 72], with 95%; and `Cc1ccnc(N2CCN(CCCC3Cn4c(-c5cc(C)c(O)c(C)c5)c(C)c5c(O)ccc(c54)O3)CC2)c1` (stereo not shown) [Example 73], with 100%.
The same measure, in the same setting: then `Cc1cccnc1N1CCN(CCCC2Cn3c(-c4cc(C)c(O)c(C)c4)c(C)c4c(O)ccc(c43)O2)CC1` (stereo not shown) [Example 74], with 100%; and `Cc1cc(-c2c(C)c3c(OCc4ccccc4)ccc4c3n2CC(CCC(=O)N2CCN(c3ccccn3)CC2)O4)cc(C)c1O` (stereo not shown) [Example 75], with 96%.

In a further experiment the test system is cutaneous histamine induced anaphylactoid reactions. Nature of the experiment: inhibition of the anaphylactoid cutaneous reaction induced by histamine. The class given is in vivo, Sprague-Dawley rats. The settings on record: Rattus norvegicus, po, 0.5 h; 2 × 10^-5 mole/kg p.o., one hour before histamine; assessed 30 minutes after provocation; read-out: Inhibitory action against cutaneous histamine induced anaphylactoid reactions in rats, % inhibition. Here is the method: 1. Determination of the inhibition of the anaphylactoid cutaneous reaction induced by histamine.
The inhibition of the anaphylactoid cutaneous reaction induced by histamine was determined in Sprague-Dawley rats having body weights of 150-180 g.
In order to determine the histamine-induced anaphylactoid skin reaction, 50 μl of a physiological saline solution containing 0.8 mg/ml of histamine were injected into the animals intradermally on one flank. Immediately afterward, a solution of 26.4 mg/kg of a blue dye (Evan's Blue) was administered i.v. to the animals.
The test substances were dissolved in distilled water which contains 1% by volume of dimethylformamide and 1% by volume of Tween®20 (=polyoxyethylene(20) sorbitan monolaurate). One hour before the histamine injection, each animal received 2×10^-5 mol/kg of test substance, in each case administered orally in 0.5 ml of solution. A control group received only the solvent for comparison.
The histamine-induced anaphylactoid reactions which manifested themselves by edema formation, swelling and exudation of blue dye are assessed 30 minutes after provocation by the histamine injection. This is carried out by visual determination of the extent of the exudation of blue dye at the sites of edema formation. With the aid of comparison scales, the percentage inhibition of the anaphylactoid reactions produced by the test substances is determined in comparison with the reactions of the control animals not treated with test substance.
The results obtained with compounds of the formula I by the above test method are reproduced in the following table A. The example numbers given as identifiers for the compounds of formula I refer to the subsequent preparative examples.
Take `Cc1ccnc(N2CCN(C(=O)CCC3Cn4c(-c5ccc(O)cc5)c(C)c5cccc(c54)O3)CC2)c1` (stereo not shown) [Example 15]: the inhibition in vivo at 20 µmol/kg is 32%.
Still for that read-out and setting: the figure for `Cc1ccnc(N2CCN(C(=O)CCC3Cn4c(-c5cc(C)c(O)c(C)c5)c(C)c5cccc(c54)O3)CC2)c1` (stereo not shown) [Example 25] is 30%; for `Cc1cc(-c2c(C)c3c(F)ccc4c3n2CC(CCN2CCN(c3ccccn3)CC2)O4)cc(C)c1O` (stereo not shown) [Example 27] it is 55%; for `Cc1ccnc(N2CCN(CCCC3Cn4c(-c5cc(C)c(O)c(C)c5)c(C)c5c(F)ccc(c54)O3)CC2)c1` (stereo not shown) [Example 29] it is 46%.
For `COc1cc(-c2c(C)c3cccc4c3n2CC(CCC(=O)N2CCN(c3ccc(C)cn3)CC2)O4)ccc1O` (stereo not shown) [Example 39], the inhibition in vivo at 20 µmol/kg worked out at 32%.
Still for that read-out and setting: the figure for `Cc1ccnc(N2CCN(CCC3Cn4c(-c5cc(C)c(O)c(C)c5)c(C)c5cc(F)cc(c54)O3)CC2)c1` (stereo not shown) [Example 42] is 36%.
Still for that read-out and setting: then `COc1cc2c3c(c1)c(C)c(-c1cc(C)c(O)c(C)c1)n3CC(CCN1CCN(c3cc(C)ccn3)CC1)O2` (stereo not shown) [Example 43], with 32%; and `Cc1ccnc(N2CCN(CCC3Cn4c(-c5cc(C)c(O)c(C)c5)c(C)c5cc(O)cc(c54)O3)CC2)c1` (stereo not shown) [Example 44], with 37%.

The values above are taken from patent US5474988A, “5-phenylpyrrolo-1,4-benzoxazine and 5-phenylpyrrolo-1,4-benzothiazine compounds, process and intermediates for their production and pharmaceutical compositions containing them” (Kali-Chemie Pharma GmbH, priority 1993, dated 1995).
